Assay results taken from patent publication US12329158B2, “Large-scale methods of uniformly coating packaging surfaces with a volatile antimicrobial to preserve food freshness” (AGROFRESH INC., priority 2013, dated 2025).

Experiments:
Assay type in all cases: in vivo
Botrytis cinerea [1] = assay: Dose response, vapor-coated clamshells; strawberries (Example 3); conditions: Inoculated Fruit, sublimation
Protocol: (§1) Five milligrams of Compound A was dissolved in 1 ml of ethanol prior to being uniformly administered to the interior of the clamshell by painting or spraying, and then dried for 5 minutes. After coating the clamshells with Compound A using various application techniques (i.e., sublimation, spraying, or painting), eight ethanol-washed strawberries were placed in the clamshell with stem end facing downwards. Each strawberry fruit was wounded using a T15 screwdriver tip to a uniform depth of eight mm (8 mm). […] Uninoculated strawberries were removed from their commercial package, and directly transferred into treated clamshells without any washing or inoculation steps.
(§2) Treated clamshells lids were closed, and then placed at 1° C. for an initial time period of 5 days. Clamshells were then removed from low temperature, and held for a second time period of 6 days at room temperature where the point of inoculation on the strawberry fruits was assessed for indication of disease incidence reported as a percentage (%). Severity of disease incidence was also reported.
This in vivo assay was used to evaluate the ability of vaporized Compound A to volatilize from a clamshell in order to control or inhibit pathogenic microorganisms. This experiment was conducted exactly as described in Example 1, with a few exceptions. After equilibrating the clamshell overnight at 21° C., Compound A was administered to the clamshell as a vapor only. In addition, Compound A was vapor-coated onto the surface of the clamshell at a final treatment rate of 3.16 mg/clamshell, 1 mg/clamshell, or 0.316 mg/clamshell. After vapor-coating application, Compound A headspace was permitted to equilibrate overnight at 21° C. Strawberries were inoculated with Botrytis cinerea, placed within the clamshells for an initial time period, and assessed for disease incidence and severity over a second time period as described in Example 1.

Botrytis cinerea [2] = assay: Painting on base, lid or base and lid of clamshells; strawberries (Example 6)
Protocol: as §1, §2
This in vivo assay was used to evaluate the ability of Compound A to volatilize from different locations of a clamshell (i.e., the base and/or the lid of the clamshell) in order to control or inhibit fruit infection by pathogenic microorganism, Botrytis cinerea. This experiment was conducted exactly as described in Example 1, with a few exceptions. Compound A was administered to the clamshell by painting only. 5 mg of Compound A was painted onto the surface of the base of the clamshell or the lid of the clamshell (i.e., 5 mg/clamshell treatment rate). 2.5 mg of Compound A was painted onto the base and the lid of the clamshell (for a total of 5 mg/clamshell treatment rate). The clamshell was then permitted to dry for 5 minutes. Strawberries were inoculated with Botrytis cinerea, placed within the clamshell for an initial time period of 5 days, and assessed for disease incidence and severity over a second time period of 7 days as described in Example 1.

Penicillium expansum = assay: Blue mold on apple, volatile assay
Protocol: Compound A is mixed with acetone and 250 μL of the mixture is pipetted into a small glass tube. […] After incubation, fruits are evaluated by measuring the diameter (mm) of rot development (browning) up to 7 days at 21° C.

[3] = Inoculated Fruit, painted on Base and Lid, 2.5/2.5 mg, Day 0
[4] = Inoculated Fruit, painted on Base and Lid, 2.5/2.5 mg, Day 1
[5] = Inoculated Fruit, painted on Base and Lid, 2.5/2.5 mg, Day 2
[6] = Inoculated Fruit, painted on Base and Lid, 2.5/2.5 mg, Day 3
[7] = Inoculated Fruit, painted on Base and Lid, 2.5/2.5 mg, Day 4
[8] = Inoculated Fruit, painted on Base and Lid, 2.5/2.5 mg, Day 5
[9] = Inoculated Fruit, painted on Base and Lid, 2.5/2.5 mg, Day 6
[10] = Inoculated Fruit, painted on Base and Lid, 2.5/2.5 mg, Day 7
[11] = Inoculated Fruit, painted on Base, 5 mg, Day 7
[12] = Uninoculated Fruit, painted on Base, 5 mg, Day 0
[13] = Uninoculated Fruit, painted on Base, 5 mg, Day 1
[14] = Uninoculated Fruit, painted on Base, 5 mg, Day 2
[15] = Uninoculated Fruit, painted on Base, 5 mg, Day 3
[16] = Uninoculated Fruit, painted on Base, 5 mg, Day 4

OB1OCc2cc(F)ccc21 [Compound A, 5-fluoro-1,3-dihydro-1-hydroxy-2,1-benzoxaborole]
Gray Mold Severity (0-4) (Botrytis cinerea [1]; 0.316 mg per clamshell, Day 1): 0.4 | Gray Mold Severity (0-4) (Botrytis cinerea [1]; 0.316 mg per clamshell, Day 2): 1.3 | Gray Mold Severity (0-4) (Botrytis cinerea [1]; 0.316 mg per clamshell, Day 3): 2.2 | Gray Mold Severity (0-4) (Botrytis cinerea [1]; 0.316 mg per clamshell, Day 4): 3.4 | Gray Mold Severity (0-4) (Botrytis cinerea [1]; 0.316 mg per clamshell, Day 5): 3.8 | Gray Mold Severity (0-4) (Botrytis cinerea [1]; 0.316 mg per clamshell, Day 6): 3.9 | Gray Mold Severity (0-4) (Botrytis cinerea [1]; 1.00 mg per clamshell, Day 1): 0.0 | Gray Mold Severity (0-4) (Botrytis cinerea [1]; 1.00 mg per clamshell, Day 2): 0.0 | Gray Mold Severity (0-4) (Botrytis cinerea [1]; 1.00 mg per clamshell, Day 3): 0.0 | Gray Mold Severity (0-4) (Botrytis cinerea [1]; 1.00 mg per clamshell, Day 4): 0.1 | Gray Mold Severity (0-4) (Botrytis cinerea [1]; 1.00 mg per clamshell, Day 5): 0.4 | Gray Mold Severity (0-4) (Botrytis cinerea [1]; 1.00 mg per clamshell, Day 6): 0.7 | Gray Mold Severity (0-4) (Botrytis cinerea [1]; 3.16 mg per clamshell, Day 1): 0.0 | Gray Mold Severity (0-4) (Botrytis cinerea [1]; 3.16 mg per clamshell, Day 2): 0.0 | Gray Mold Severity (0-4) (Botrytis cinerea [1]; 3.16 mg per clamshell, Day 3): 0.0 | Gray Mold Severity (0-4) (Botrytis cinerea [1]; 3.16 mg per clamshell, Day 4): 0.0 | Gray Mold Severity (0-4) (Botrytis cinerea [1]; 3.16 mg per clamshell, Day 5): 0.1 | Gray Mold Severity (0-4) (Botrytis cinerea [1]; 3.16 mg per clamshell, Day 6): 0.2 | Gray Mold Incidence (%) (Botrytis cinerea [2]; [3]): 0.0% | Gray Mold Severity (0-4) (Botrytis cinerea [2]; [3]): 0.0 | Gray Mold Incidence (%) (Botrytis cinerea [2]; [4]): 0.0% | Gray Mold Severity (0-4) (Botrytis cinerea [2]; [4]): 0.0 | Gray Mold Incidence (%) (Botrytis cinerea [2]; [5]): 0.0% | Gray Mold Severity (0-4) (Botrytis cinerea [2]; [5]): 0.0 | Gray Mold Incidence (%) (Botrytis cinerea [2]; [6]): 0.0% | Gray Mold Severity (0-4) (Botrytis cinerea [2]; [6]): 0.0 | Gray Mold Incidence (%) (Botrytis cinerea [2]; [7]): 0.0% | Gray Mold Severity (0-4) (Botrytis cinerea [2]; [7]): 0.0 | Gray Mold Incidence (%) (Botrytis cinerea [2]; [8]): 0.0% | Gray Mold Severity (0-4) (Botrytis cinerea [2]; [8]): 0.0 | Gray Mold Incidence (%) (Botrytis cinerea [2]; [9]): 0.0% | Gray Mold Severity (0-4) (Botrytis cinerea [2]; [9]): 0.0 | Gray Mold Incidence (%) (Botrytis cinerea [2]; [10]): 0.0% | Gray Mold Severity (0-4) (Botrytis cinerea [2]; [10]): 0.0 | Gray Mold Severity (0-4) (Botrytis cinerea [2]; Inoculated Fruit, painted on Base, 5 mg, Day 0): 0.0 | Gray Mold Severity (0-4) (Botrytis cinerea [2]; Inoculated Fruit, painted on Base, 5 mg, Day 1): 0.0 | Gray Mold Severity (0-4) (Botrytis cinerea [2]; Inoculated Fruit, painted on Base, 5 mg, Day 2): 0.1 | Gray Mold Severity (0-4) (Botrytis cinerea [2]; Inoculated Fruit, painted on Base, 5 mg, Day 3): 0.1 | Gray Mold Severity (0-4) (Botrytis cinerea [2]; Inoculated Fruit, painted on Base, 5 mg, Day 4): 0.0 | Gray Mold Severity (0-4) (Botrytis cinerea [2]; Inoculated Fruit, painted on Base, 5 mg, Day 5): 0.0 | Gray Mold Severity (0-4) (Botrytis cinerea [2]; Inoculated Fruit, painted on Base, 5 mg, Day 6): 0.2 | Gray Mold Incidence (%) (Botrytis cinerea [2]; [11]): 18.8% | Gray Mold Severity (0-4) (Botrytis cinerea [2]; [11]): 0.3 | Gray Mold Severity (0-4) (Botrytis cinerea [2]; Inoculated Fruit, painted on Lid, 5 mg, Day 0): 0.0 | Gray Mold Severity (0-4) (Botrytis cinerea [2]; Inoculated Fruit, painted on Lid, 5 mg, Day 1): 0.0 | Gray Mold Severity (0-4) (Botrytis cinerea [2]; Inoculated Fruit, painted on Lid, 5 mg, Day 2): 0.0 | Gray Mold Severity (0-4) (Botrytis cinerea [2]; Inoculated Fruit, painted on Lid, 5 mg, Day 3): 0.0 | Gray Mold Severity (0-4) (Botrytis cinerea [2]; Inoculated Fruit, painted on Lid, 5 mg, Day 4): 0.0 | Gray Mold Severity (0-4) (Botrytis cinerea [2]; Inoculated Fruit, painted on Lid, 5 mg, Day 5): 0.0 | Gray Mold Severity (0-4) (Botrytis cinerea [2]; Inoculated Fruit, painted on Lid, 5 mg, Day 6): 0.0 | Gray Mold Severity (0-4) (Botrytis cinerea [2]; Inoculated Fruit, painted on Lid, 5 mg, Day 7): 0.0 | Gray Mold Severity (0-4) (Botrytis cinerea [2]; Uninoculated Fruit, painted on Base and Lid, 2.5/2.5 mg, Day 0): 0.0 | Gray Mold Severity (0-4) (Botrytis cinerea [2]; Uninoculated Fruit, painted on Base and Lid, 2.5/2.5 mg, Day 1): 0.0 | Gray Mold Severity (0-4) (Botrytis cinerea [2]; Uninoculated Fruit, painted on Base and Lid, 2.5/2.5 mg, Day 2): 0.0 | Gray Mold Severity (0-4) (Botrytis cinerea [2]; Uninoculated Fruit, painted on Base and Lid, 2.5/2.5 mg, Day 3): 0.2 | Gray Mold Severity (0-4) (Botrytis cinerea [2]; Uninoculated Fruit, painted on Base and Lid, 2.5/2.5 mg, Day 4): 0.8 | Gray Mold Severity (0-4) (Botrytis cinerea [2]; Uninoculated Fruit, painted on Base and Lid, 2.5/2.5 mg, Day 5): 1.5 | Gray Mold Severity (0-4) (Botrytis cinerea [2]; Uninoculated Fruit, painted on Base and Lid, 2.5/2.5 mg, Day 6): 1.5 | Gray Mold Severity (0-4) (Botrytis cinerea [2]; Uninoculated Fruit, painted on Base and Lid, 2.5/2.5 mg, Day 7): 1.5 | Gray Mold Incidence (%) (Botrytis cinerea [2]; [12]): 0.0% | Gray Mold Severity (0-4) (Botrytis cinerea [2]; [12]): 0.0 | Gray Mold Incidence (%) (Botrytis cinerea [2]; [13]): 0.0% | Gray Mold Severity (0-4) (Botrytis cinerea [2]; [13]): 0.0 | Gray Mold Incidence (%) (Botrytis cinerea [2]; [14]): 0.0% | Gray Mold Severity (0-4) (Botrytis cinerea [2]; [14]): 0.0 | Gray Mold Incidence (%) (Botrytis cinerea [2]; [15]): 0.0% | Gray Mold Severity (0-4) (Botrytis cinerea [2]; [15]): 0.0 | Gray Mold Incidence (%) (Botrytis cinerea [2]; [16]): 2.2% | Gray Mold Severity (0-4) (Botrytis cinerea [2]; [16]): 0.3 | Gray Mold Severity (0-4) (Botrytis cinerea [2]; Uninoculated Fruit, painted on Base, 5 mg, Day 5): 0.8 | Gray Mold Severity (0-4) (Botrytis cinerea [2]; Uninoculated Fruit, painted on Base, 5 mg, Day 6): 1.2 | Gray Mold Severity (0-4) (Botrytis cinerea [2]; Uninoculated Fruit, painted on Base, 5 mg, Day 7): 1.5 | Gray Mold Severity (0-4) (Botrytis cinerea [2]; Uninoculated Fruit, painted on Lid, 5 mg, Day 0): 0.0 | Gray Mold Severity (0-4) (Botrytis cinerea [2]; Uninoculated Fruit, painted on Lid, 5 mg, Day 1): 0.0 | Gray Mold Severity (0-4) (Botrytis cinerea [2]; Uninoculated Fruit, painted on Lid, 5 mg, Day 2): 0.0 | Gray Mold Severity (0-4) (Botrytis cinerea [2]; Uninoculated Fruit, painted on Lid, 5 mg, Day 3): 0.2 | Gray Mold Severity (0-4) (Botrytis cinerea [2]; Uninoculated Fruit, painted on Lid, 5 mg, Day 4): 1.2 | Gray Mold Severity (0-4) (Botrytis cinerea [2]; Uninoculated Fruit, painted on Lid, 5 mg, Day 5): 2.0 | Gray Mold Severity (0-4) (Botrytis cinerea [2]; Uninoculated Fruit, painted on Lid, 5 mg, Day 6): 2.0 | Gray Mold Severity (0-4) (Botrytis cinerea [2]; Uninoculated Fruit, painted on Lid, 5 mg, Day 7): 2.5 | Browning Rot (diameter; mm) (Penicillium expansum; 0.02 mg/L, Day 0): 0.0 mm | Browning Rot (diameter; mm) (Penicillium expansum; 0.02 mg/L, Day 2): 0.9 mm | Browning Rot (diameter; mm) (Penicillium expansum; 0.02 mg/L, Day 4): 2.8 mm | Browning Rot (diameter; mm) (Penicillium expansum; 0.02 mg/L, Day 7): 6.9 mm | Browning Rot (diameter; mm) (Penicillium expansum; 0.1 mg/L, Day 0): 0.0 mm | Browning Rot (diameter; mm) (Penicillium expansum; 0.1 mg/L, Day 2): 0.0 mm | Browning Rot (diameter; mm) (Penicillium expansum; 0.1 mg/L, Day 4): 0.3 mm | Browning Rot (diameter; mm) (Penicillium expansum; 0.1 mg/L, Day 7): 2.0 mm | Browning Rot (diameter; mm) (Penicillium expansum; 0.5 mg/L, Day 0): 0.0 mm | Browning Rot (diameter; mm) (Penicillium expansum; 0.5 mg/L, Day 2): 0.0 mm | Browning Rot (diameter; mm) (Penicillium expansum; 0.5 mg/L, Day 4): 0.0 mm | Browning Rot (diameter; mm) (Penicillium expansum; 0.5 mg/L, Day 7): 0.4 mm | Browning Rot (diameter; mm) (Penicillium expansum; 2.5 mg/L, Day 0): 0.0 mm | Browning Rot (diameter; mm) (Penicillium expansum; 2.5 mg/L, Day 2): 0.0 mm | Browning Rot (diameter; mm) (Penicillium expansum; 2.5 mg/L, Day 4): 0.0 mm | Browning Rot (diameter; mm) (Penicillium expansum; 2.5 mg/L, Day 7): 0.0 mm
